# Test results taken from patent publication US20250213560A1, “NITROGEN-CONTAINING HETEROCYCLIC COMPOUNDS HAVING PHENYL GROUP AND USES THEREOF” (BNH RESEARCH CO., LTD., priority 2022, published 2025).
# What was measured:
# GluN2B = GluN2B protein expression by Western blot in primary cortical neuron cells; assay type: cell-based, mouse
# Experimental: Meanwhile, primary cortical neuron cells were isolated from cerebral cortices of 18-day-old mouse fetuses, incubated in prep media (composition (mM): NaCl 107.5, NaH2PO4 1, NaHCO333.5, glucose 11, HEPS 1%, penicillin-streptomycin 1%) containing 0.25% trypsin and DNasel for 30 minutes, dissociated into single cells, and seeded. Primary cortical neuron cells were grown in Neurobasal medium supplemented with 1% (v/v) B27, 1% penicillin (100 U/mL), streptomycin ([…]), and 1% Glutamax. Cells were maintained in a humidified atmosphere of 95% air and 5% CO2 at 37° C. Drug efficacy was evaluated after culturing primary cortical neuron cells for 14 days.
# The amount of GluN2B reacted with the compound of the present disclosure was measured using Western blot. The fetal cerebral cortex was extracted from mice at 17 days of gestation, dissociated into single cells, cultured for 13 days, and treated with BnH drugs for 24 hours. The drug-treated cells were subjected to protein lysate preparation using RIPA protein lysis buffer containing protease and phosphatase inhibitors. The protein concentration was determined using a BCA protein assay kit (Pierce Biotechnology) using bovine serum albumin as a standard. Equal amounts of protein (20 μg per lane) were separated by electrophoresis on SDS-polyacrylamide gels at 90 V for 2 hours, then transferred from the SDS-polyacrylamide gel to PVDF membrane at 100 V for 1 hour. Then, primary reaction with GluN2B antibody (ab65783, Abcam) was performed at 4° C. for 1 day, washed three times at 10-minutes intervals with 1×PBT, and secondary reaction was performed with anti-mouse antibody (sc-2357, Santa Cruz) for 1 hour, followed by washing three times at 10-minutes intervals with 1×PBT. Western blotting was performed as described above to confirm GluN2B protein expression. Subsequently, each blot was re-probed using anti-β-actin antibody (sc-47778, Santa Cruz). Housekeeping protein B-actin was detected as a normalization control.
# The increase and decrease of BnH12 series were confirmed by setting the vehicle to 1 (N for each group was 3 or more).
# Using the experimental procedure described in Example 3, it was determined whether various BnH12 series compounds increase GluN2B expression, and the results are shown in Table 5. These in vitro experimental results are expressed as relative values to the group (vehicle) that was not treated with the compound, with the effect of the group set to 1.
# APP/PS1 mice = assay: Hippocampal fEPSP I/O curve and LTP in Alzheimer's model mice; assay type: in vivo, mouse; conditions: hippocampus CA1, Os pump ventricular infusion 3 μM
# Excerpt: Field recordings were made with a concentric bipolar electrode positioned in the stratum radiatum of the CA1 region using an extracellular glass pipette (3.5 M (2) filled with aCSF. Specifically, fEPSPs were evoked by Schaffer collateral (SC)/commissural fibers with a concentric bipolar electrode placed 200 to 300 μm from the recording pipette. Stimulation was delivered through a bipolar electrode (FHC, Bowdoin, ME, USA) placed in the Schaffer collateral-CA1 (SC). Te SC circuit was visualized using differential interference contrast (DIC) microscopy at 4× magnification and identified by the ability to evoke short and constant latency field excitatory postsynaptic potentials (fEPSPs) at CA1 synapses by SC input stimulation. In all fEPSP experiments, the test stimulation were measured prior to the beginning of all the experiments (30 μA) and a test-pulse stimulation strength that evokes 50% of the maximum fEPSP was used. Baseline synaptic responses was recorded for 30 minutes, and then long-term potentiation (LTP) was induced by high-frequency stimulation (HFS; 100 Hz, 4 trains, 1 s duration, 20 s inter-train interval). […]
# Excitatory postsynaptic potential (EPSP) was recorded by the whole-cell patch clamp method using a patch clamp amplifier (molecular devices, USA). […] It was then recorded for 60 minutes (LTP). […]
structure (smiles),measurement,setting,value
"C[C@H]1CC[C@@H](C(=O)O)CN1C(=O)Cc1ccc(-c2cncnc2)cc1 [BnH12003, (3R,6S)-6-methyl-1-(2-(4-(pyrimidin-5-yl)phenyl)acetyl) piperidine-3-carboxylic acid]",GluN2B expression effect (in words),"GluN2B; compared to vehicle / other compounds, Table 5",excellent effects
same,Western blot results Mean (GluN2B expression),"GluN2B; relative value, vehicle set to 1, primary cortical neurons treated for 24 hours",2.141
same,I/O curve of field EPSP (synaptic efficacy),APP/PS1 mice,synaptic efficacy was increased
same,"LTP of EPSP, excitatory SC pathway",APP/PS1 mice,significantly increased
